Assay results taken from US20050038058A1, “Novel compounds and methods for therapy” (Institute of Organic Chemistry and Biochemistry, priority 2001, published 2005).
Converted amounts (≈) assume the structure as drawn. Read-outs that look alike come from different tables or passages of the source. Marks after values point to notes of the source that are not given here.

Columns and labels:
HIV-2(ROD) [1] = assay: HIV-2(ROD)-induced cytopathicity in CEM cell cultures; type: cell-based; details: giant cell formation; Table 2
Summary of the method: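 CEM cells infected with 100 CCID50 of HIV-2(ROD) or clinical HIV-1 isolates L1S, L6S, or PMEA-passaged L6S/PMEA. Inhibition of cytopathicity assessed at day 4–5 post infection by microscopic scoring of virus-induced giant cell formation.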

PBL = assay: Cell viability in PBL; type: cell-based; details: reduction of cell viability; Table 2
C3H cells = assay: Alteration of C3H cell morphology (minimal inhibitory concentration); type: cell-based, murine
CEM cells = assay: Incorporation of [3H]thymidine, [3H]uridine and [3H]leucine into CEM cell material; type: cell-based; details: 200 μg/mL; 12 hour incubation period
Description: The incorporation of [methyl-^3H]thymidine, [^3H]uridine and [^3H]leucine into the methanol-insoluble CEM cell fraction was also measured in microplates. To each well were added 10^5 CEM cells, 5.9 pmol (0.25 μCi) of [methyl-^3H]thymidine, 38 pmol (1.0 μCi) of [^3H]uridine and 19 pmol (1.0 μCi) [4,5-^3H]leucine, and a given amount of the test compound. […] At the end of this incubation period, the contents of the wells (200 μl) were brought onto 25-mm glass fiber filters (type A/G; Gelman Instrument Co., Ann Arbor, Mich.) mounted on a Millipore 3025 sampling manifold apparatus. The filters were washed twice with cold PBS (phosphate-buffered saline), twice with cold 10% trichloroacetic acid, twice with cold 5% trichloroacetic acid, once with cold ethanol, and once with cold ether. The filters were then allowed to dry for 10 min at 60° C. and assayed for radioactivity in a toluene-based scintillant.

MSV = type: in vivo; details: for Number of Mice not Developing a Tumor (percent): intraperitoneal, 5 daily doses, newborn NMRI mice
HIV-1/L6S = type: cell-based; details: measured against the laboratory HIV-1/IIIB strain in CEM cell cultures
Text: (§1) Viruses. The origins of MSV, HIV type 1 (HIV-1) (strain IIIB and Ba-L), HIV-2 (strain ROD) and FIV (strain Petaluma) have been described previously (Balzarini et al., AIDS 5: 21-28, 1991; De Clercq et al., Proc. Soc. Exp. Biol. Med. 137:590-594, 1971; Egberink et al., Proc. Natl. Acad. Sci. 87:3087-3091, 1990; Hartmann et al., Antiviral Chem. Chemother. 5:13-19, 1994; Popovic et al., Science 224:497-500, 1984). HIV-1(IIIB) and HIV-2(ROD) stocks were obtained from supernatants of virus-infected MT-4 cell cultures. HIV-1BaL was expanded in human primary M/M, whose supernatants were collected, filtered and stored at −80° C. before use. Characteristics of viral stocks used for this study were 2.1×10^8 HIV-RNA genomes/ml (corresponding to 35 ng of p24 antigen) and 5,000 tissue culture infectious doses 50% per ml (TCID50/ml) as assessed by virus titration in other primary M/M cultures. The isolation and characterization of the clinical HIV-1 isolates L1S, L6S and L6S/PMEA has been reported (Thormar et al., Proc. Natl. Acad. Sci. USA 93:3283-3287, 1995; Van Laethem et al., AIDS 15:553-561, 2001). […] HIV-1/L6S/PMEA is the clinical isolate HIV-1/L6S that has been isolated after culturing the virus for 11 passages in the presence of increasing concentrations of PMEA (adefovir).
(§2) In vitro antiviral assays. The activity against HIV-1- and HIV-2-induced cytopathicity was examined in MT-4 cell cultures at day 5 post infection and based on the determination of cell viability by trypan blue dye staining or in CEM cell cultures at day 4 to 5 post infection and based on the microscopical examination of virus-induced giant cell formation. HIV-1 and HIV-2 were added at 100 CCID50 to the cell cultures.

HIV-1/L6S/PMEA = type: cell-based; details: measured against the laboratory HIV-1/IIIB strain in CEM cell cultures
Text: as §1, §2

HIV-1/L1S = type: cell-based; details: measured against the laboratory HIV-1/IIIB strain in CEM cell cultures
Text: as §1, §2

HIV-1(IIIB) [2] = assay: HIV-1(IIIB)-induced cytopathicity in MT-4 cell cultures; type: cell-based; details: Table 2
HIV-1(IIIB) [3] = assay: HIV-1(IIIB)-induced cytopathicity in CEM cell cultures; type: cell-based
Summary of the method: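 Protection against cytopathicity caused by HIV-1 strain IIIB was measured in CEM cell cultures. The IIIB stock came from supernatants of infected MT-4 cell cultures, and virus was added to the cultures at 100 CCID50. At day 4 to 5 post infection, virus-induced giant cell formation was examined microscopically, and the EC50 was derived from this.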

HIV-2(ROD) [4] = assay: HIV-2(ROD)-induced cytopathicity in MT-4 cell cultures; type: cell-based; details: Table 2
[5] = system: HIV-1(IIIB) strains containing L100I, K103N, Y181C and Y188H mutations in the RT; assay: HIV-1(IIIB) strains with NNRTI-specific RT mutations in CEM cell cultures; type: cell-based; details: data not shown
Description: as §2

C[C@H](COc1cc(N)nc(N)n1)OCP(=O)(O)O [Compound 11, 2,4-diamino-6-(R)-[2-(phosphonomethoxy)propoxy]pyrimidine]
EC50 HIV-2 (ROD) (CEM) (HIV-2(ROD) [1]): 1.3 ± 0.4 µg/mL (≈ 4.67 µM) | CC50 PBL (PBL): 9.6 ± 2.5 µg/mL (≈ 34.5 µM) | Compound concentration at which morphological toxicity was observed, C3H (value between parentheses) (C3H cells; Table 2, footnote c): 200 μg/ml | CC50 C3H (minimal inhibitory concentration) (C3H cells; microscopically visible alteration of cell morphology, > means no visible toxicity at the indicated concentration): > 40 µg/mL | Inhibition of [3H]dThd, [3H]Urd and [3H]leu incorporation into TCA-insoluble CEM cell material (macromolecular synthesis) (CEM cells): Neither compounds 1 nor 2, nor compound 11 were inhibitory | Number of Long-Term Survivors (%) (>30 days) (MSV; 2 mg/kg): 5% | Number of Mice not Developing a Tumor (percent) (MSV; 2 mg/kg): 0% | Number of Long-Term Survivors (%) (>30 days) (MSV; 8 mg/kg): 40% | Number of Mice not Developing a Tumor (percent) (MSV; 8 mg/kg): 15% | Number of Mice not Developing a Tumor (percent) (MSV; 20 mg/kg): 20% | Number of Long-Term Survivors (%) (>30 days) (MSV; 20 mg/kg, premature death not taken into account): 40^c % | -Fold Resistance HIV-1/L6S (HIV-1/L6S): 3.5 fold | -Fold Resistance HIV-1/L6S/PMEA (HIV-1/L6S/PMEA): 30 fold | -Fold Resistance HIV-1/L1S (HIV-1/L1S): 1.9 fold | EC50 HIV-1 (IIIB) (MT-4) (HIV-1(IIIB) [2]): 3.0 ± 0.4 µg/mL (≈ 10.8 µM) | Antiretroviral (anti-HIV-1) activity in CEM cell cultures, in words (HIV-1(IIIB) [3]): markedly more inhibitory | EC50 as such (HIV-1(IIIB) [3]; HIV-1 (IIIB) in CEM, no addition, Table 3): 1.2 ± 0.25 µg/mL (≈ 4.31 µM) | EC50 upon addition of Ade (100 μM) (HIV-1(IIIB) [3]; HIV-1 (IIIB) in CEM, Ade 100 μM): 0.35 ± 0.17 µg/mL | EC50 upon addition of Ado (400 μM) (HIV-1(IIIB) [3]; HIV-1 (IIIB) in CEM, Ado 400 μM): 1.5 ± 0.70 µg/mL | EC50 upon addition of Guo (10 μM) (HIV-1(IIIB) [3]; HIV-1 (IIIB) in CEM, Guo 10 μM): 0.77 ± 0.38 µg/mL | EC50 upon addition of dCyd (1 mM) (HIV-1(IIIB) [3]; HIV-1 (IIIB) in CEM, dCyd 1 mM): 1.1 ± 0.51 µg/mL | EC50 upon addition of dThd (10 μM) (HIV-1(IIIB) [3]; HIV-1 (IIIB) in CEM, dThd 10 μM): 0.83 ± 0.35 µg/mL | EC50 HIV-1 (CEM) (HIV-1(IIIB) [3]; HIV-1(IIIB)-induced cytopathicity in CEM cell cultures, Table 1): 1.8 µg/mL (≈ 6.47 µM) | EC50 HIV-1 (IIIB) (CEM) (HIV-1(IIIB) [3]; giant cell formation, mean ±SD of 2 to 4 experiments, Table 2): 1.9 ± 0.5 µg/mL (≈ 6.83 µM) | EC50 HIV-2 (ROD) (MT-4) (HIV-2(ROD) [4]): 1.6 ± 0.6 µg/mL (≈ 5.75 µM) | Activity against NNRTI-specific mutant virus strains, in words [5]: retained full activity
